Experiments:
Test in all cases: relative viability (nuclei count vs DMSO), 5 days (fraction); higher = more cells survive
TPCA-1 + Phenformin = compound: C1=CC(=CC=C1C2=CC(=C(S2)NC(=O)N)C(=O)N)F [TPCA-1] + N=C(N)NC(=N)NCCc1ccccc1 [Phenformin] (partner 250 µM)
Procedure, shortened: (§1)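 Relative viability divides the nuclei count in treated wells by that in vehicle wells. Lung cancer cell lines were seeded in 1536-well plates, dosed by pin tool the next day, and fixed and stained after 5 days in one step with final 0.05% Triton X-100, 1% formaldehyde and 1 ug/ml Hoechst. Dosing was a single drug or a fixed anchor-drug dose plus five library-drug doses (not always all listed) in √10 steps, and values are medians of duplicate plates imaged at 4×.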

[1] = compound: C1/C(=C\C2=CC=CS2)/C(=O)/C(=C/C3=CC=CS3)/C1 + CC(C)C[C@H](NC(=O)[C@H](Cc1ccccc1)NC(=O)c1cnccn1)B(O)O [Bortezomib] (partner 0.002 µM)
Procedure, shortened: as §1

TPCA-1 + Decitabine = compound: C1=CC(=CC=C1C2=CC(=C(S2)NC(=O)N)C(=O)N)F [TPCA-1] + Nc1ncn([C@H]2C[C@H](O)[C@@H](CO)O2)c(=O)n1 [Decitabine] (partner 2 µM)
Procedure, shortened: as §1

[2] = compound: C1/C(=C\C2=CC=CS2)/C(=O)/C(=C/C3=CC=CS3)/C1 + Cc1cc(Nc2cc(N3CCN(C)CC3)nc(Sc3ccc(NC(=O)C4CC4)cc3)n2)n[nH]1 [Tozasertib] (partner 0.1 µM)
Procedure, shortened: as §1

Cell Line	relative viability (TPCA-1 + Phenformin; first compound 0.04 µM)	relative viability (TPCA-1 + Phenformin; first compound 0.1265 µM)	relative viability (TPCA-1 + Phenformin; first compound 0.4 µM)	relative viability (TPCA-1 + Phenformin; first compound 1.265 µM)	relative viability (TPCA-1 + Phenformin; first compound 4 µM)	relative viability ([1]; first compound 0.2 µM)	relative viability ([1]; first compound 0.6325 µM)	relative viability ([1]; first compound 2 µM)	relative viability ([1]; first compound 6.325 µM)	relative viability ([1]; first compound 20 µM)	relative viability (TPCA-1 + Decitabine; first compound 0.04 µM)	relative viability (TPCA-1 + Decitabine; first compound 0.1265 µM)	relative viability (TPCA-1 + Decitabine; first compound 0.4 µM)	relative viability (TPCA-1 + Decitabine; first compound 1.265 µM)	relative viability (TPCA-1 + Decitabine; first compound 4 µM)	relative viability ([2]; first compound 0.2 µM)	relative viability ([2]; first compound 0.6325 µM)	relative viability ([2]; first compound 2 µM)	relative viability ([2]; first compound 6.325 µM)	relative viability ([2]; first compound 20 µM)
201T	0.484	0.454	0.425	0.378	0.426	1.17	1.08	1.13	1.04	1.08	0.901	0.868	0.889	0.869	0.941	0.959	0.968	1	0.897	0.911
A549	0.206	0.162	0.151	0.141	0.0882						0.219	0.423	0.284	0.182	0.102					
CAL-12T	0.622	0.51	0.612	0.51	0.172	1.1	1.09	1.18	0.976	1.04						0.334	0.32	0.356	0.256	0.309
Calu-6						1.02	1.02	1	0.837	1.06										
EBC-1						0.524	0.558	0.551	0.441	0.605										
IA-LM						0.809	0.909	0.886	0.753	0.665										
LK-2	0.868	0.236	0.444	0.603	0.206						0.347	0.21	0.331	0.27	0.175	0.157	0.155	0.196	0.168	0.175
NCI-H358	0.359	0.287	0.379	0.333	0.206						0.224	0.215	0.217	0.214	0.153	0.101	0.096	0.112		0.11
NCI-H522	0.67	0.611	0.504	0.776	0.621						0.658	0.674	0.662	0.646	0.58	0.6	0.506	0.523	0.549	0.583
NCI-H1299						1.07	1.05	0.96	0.898	1.03										
NCI-H1395	0.445	0.488	0.449	0.436	0.499						0.791	0.694	0.753	0.797	0.695	0.767	0.879	0.91	0.686	0.754
NCI-H1563	0.712	0.653	0.712	0.603	0.667	1.01	0.912	1.11	0.86	0.859										
NCI-H1623	0.592	0.522	0.62	0.574	0.4											0.479	0.437	0.423	0.394	0.489
NCI-H1648											0.605	0.578	0.495	0.519	0.569	0.598	0.559	0.467		0.4
NCI-H1703						0.338	0.432	0.28	0.25	0.336										
NCI-H1792	0.326	0.246	0.322	0.217	0.158	0.968	0.957	1.06		0.832	0.674	0.465	0.551	0.474	0.307					
NCI-H1793	0.364		0.297	0.402	0.261						0.495	0.429	0.492	0.451	0.384	0.394	0.297	0.347	0.338	0.258
NCI-H1944	0.238	0.202	0.217	0.176	0.189						0.526	0.446	0.477	0.475	0.383	0.282	0.248	0.259	0.241	0.236
NCI-H2170	0.478	0.401	0.424	0.402	0.362						0.493	0.433	0.444	0.453	0.385	0.689	0.716	0.73	0.563	0.728
NCI-H2228	0.396	0.292	0.412	0.285	0.272	1.11	0.987	1.44	0.808	0.86						0.239	0.235	0.246	0.145	0.261
NCI-H2342	0.612	0.538	0.574	0.504	0.47						0.71	0.653	0.766	0.712	0.883	0.521	0.567	0.561	0.443	0.459
SK-MES-1	0.679	0.612	0.668	0.596	0.498						0.39	0.348	0.37	0.342	0.321	0.922	0.977	0.942	0.818	0.831
SW 900	0.79	0.577	0.518	0.395	0.529								0.407	0.421	0.391	0.514	0.567	0.558	0.618	0.584
